Measured values published in patent US11000491B2, “Amino-aryl-benzamide compounds and methods of use thereof” (HEPANOVA, INC., priority 2017, dated 2021).
Read-outs that look alike come from different tables or passages of the source.

Columns and labels:
Assay type in all cases: cell-based
[1] = tested on: Huh7 cells; assay: LD content in Huh7 cells pre-treated with insulin, Oil-Red-O staining, absorbance OD 540 nm; settings: procedure of Example 3, read-out: LD content inhibition (EC50)
Procedure: FIG. 6. […] Spectrophotometric absorbance of untreated or HPN-01-treated Huh7 cells pre-incubated with 1 mM insulin is shown. LD contents were stained using Oil Red O, and measured by determining spectrophotometer absorbance under OD 540 nm.
Huh7 cells were mock treated or pre-treated with 1 mM insulin, and subsequently treated with indicated amounted of HPN-01.
The ability of each HPN-01 derivative obtained from the synthesis methods described above, to inhibit LD formation in hepatocytes, was tested using the procedure outlined in Example 3. The results of this analysis are shown below in Table 6 (second column).

[2] = tested on: SREBP-1; assay: SREBP-1 expression in cultured primary human hepatocytes; settings: procedure of Example 6, read-out: SREBP-1 mRNA inhibition (EC50)
Procedure: (§1) FIG. 9. Effects of HPN-01 on the expression of SREBP-1 (master regulator of hepatic glucose metabolism and fatty acid synthesis) and SREBP-2 (master regulator of cholesterol homeostasis in cells) in cultured primary human hepatocytes.
(§2) Cultured primary human hepatocytes were treated with various concentrations of HPN-01, and the expression levels of SREBP-1 (master regulator of hepatic glucose metabolism and fatty acid synthesis) and SREBP-2 (master regulator of cholesterol homeostasis in cells) were subsequently determined.
(§3) The ability of each HPN-01 derivative obtained from the synthesis methods described above, to inhibit SREBP-1 and SREBP-2 mRNA expression in primary hepatocytes, was tested using the procedure outlined in Example 6. The results of this analysis are shown in Table 6 (third and fourth columns).

[3] = tested on: SREBP-2; assay: SREBP-2 expression in cultured primary human hepatocytes; settings: procedure of Example 6, read-out: SREBP-2 mRNA inhibition (EC50)
Procedure: as §1, §2, §3

[4] = Homo sapiens, Huh-7, Huh7 cells

Compound	EC50 [1, 4]	EC50 ([1]; Huh7 cells)	EC50 [2]	EC50 [3]	EC50 ([2]; Homo sapiens, Hepatocyte)	EC50 ([3]; Homo sapiens, Hepatocyte)	EC50 ([2]; Hepatocyte)	EC50 ([3]; Hepatocyte)
4′-butyramido-4-chloro-4″-sulfamoyl-[1,1′:3′,1″-terphenyl]-5′-carboxamide [HPN-01515]		0.48 µM	0.95 µM	1.32 µM				
NC(=O)Nc1ccc(-c2cc(-c3ccc(Cl)cc3)cc(C(N)=O)c2NC(=O)CO)cc1 [HPN-01506, 4-chloro-4′-(2-hydroxyacetamido)-4″-ureido-[1,1′:3′,1″-terphenyl]-5′-carboxamide]	6.48 µM				7.31 µM	17.1 µM		
NC(=O)c1cc(Nc2ccc(Cl)cc2)cc(-c2ccc(S(N)(=O)=O)cc2)c1N [HPN-01312, 2-amino-5-((4-chlorophenyl)amino)-4′-sulfamoyl-[1,1′-biphenyl]-3-carboxamide]	1.45 µM				7.53 µM	10.3 µM		
NC(=O)c1cc(C#Cc2cccc(Br)c2)cc(-c2ccc(S(N)(=O)=O)cc2)c1N [HPN-01208, 2-amino-5-((3-bromophenyl)ethynyl)-4′-sulfamoyl-[1,1′-biphenyl]-3-carboxamide]	1.69 µM				3.25 µM	5.77 µM		
NC(=O)c1cc(Nc2cccc(Cl)c2)cc(-c2ccc(S(N)(=O)=O)cc2)c1N [HPN-01315, 2-amino-5-((3-chlorophenyl)amino)-4′-sulfamoyl-[1,1′-biphenyl]-3-carboxamide]	2.61 µM				7.72 µM	14 µM		
NC(=O)c1cc(-c2ccc(Br)cc2)cc(-c2ccc(OP(=O)(O)O)cc2)c1N [HPN-01416, 6′-amino-4″-bromo-5′-carbamoyl-[1,1′:3′,1″-terphenyl]-4-yl dihydrogen phosphate]	1.51 µM						3.02 µM	4.01 µM
Nc1c(C(=O)Nc2cccc(F)c2)cc(-c2ccc(Cl)cc2)cc1-c1ccc(S(N)(=O)=O)cc1 [HPN-01613, 4′-amino-4-chloro-N-(3-fluorophenyl)-4″-sulfamoyl-[1,1′:3′,1″-terphenyl]-5′-carboxamide]	1.37 µM				1.55 µM	2.2 µM		
NC(=O)c1cc(-c2ccc(Cl)nc2)cc(-c2ccc(S(N)(=O)=O)cc2)c1N [HPN-01307, 2-amino-5-(6-chloropyridin-3-yl)-4′-sulfamoyl-[1,1′-biphenyl]-3-carboxamide]	1.36 µM				5.68 µM	4.59 µM		
(E)-2-amino-5-(3-((4-fluorophenethyl)amino)-3-oxoprop-1-en-1-yl)-4′-sulfamoyl-[1,1′-biphenyl]-3-carboxamide [HPN-01132]		0.07 µM	0.36 µM	1.55 µM				
decyl (E)-3-(6-amino-5-carbamoyl-4′-sulfamoyl-[1,1′-biphenyl]-3-yl)acrylate [HPN-01119]		1.08 µM	2.71 µM	4.17 µM				
Nc1c(C(=O)Nc2cccnc2)cc(-c2ccc(Cl)cc2)cc1-c1ccc(S(N)(=O)=O)cc1 [HPN-01625, 4′-amino-4-chloro-N-(pyridin-3-yl)-4″-sulfamoyl-[1,1′:3′,1″-terphenyl]-5′-carboxamide]	2.32 µM				3.32 µM	18.8 µM		
(E)-2-amino-5-styryl-4′-sulfamoyl-[1,1′-biphenyl]-3-carboxamide [HPN-01101]		0.57 µM	2.96 µM	6.98 µM				
NC(=O)c1cc(-c2ccc(Cl)cc2)cc(Oc2cccc(S(N)(=O)=O)c2)c1N [HPN-01412, 4-amino-4′-chloro-5-(3-sulfamoylphenoxy)-[1,1′-biphenyl]-3-carboxamide]	2.07 µM				3.09 µM	6.11 µM		
NC(=O)c1cc(-c2ccc(Br)cc2)cc(-c2ccc(S(N)(=O)=O)cc2)c1NC(=O)C1CC1 [HPN-01525, 4-bromo-4′-(cyclopropanecarboxamido)-4″-sulfamoyl-[1,1′:3′,1″-terphenyl]-5′-carboxamide]	1.45 µM				5.61 µM	10 µM		
NC(=O)c1cc(-c2c[nH]c(Br)c2)cc(-c2ccc(S(N)(=O)=O)cc2)c1N [HPN-01311, 2-amino-5-(5-bromo-1H-pyrrol-3-yl)-4′-sulfamoyl-[1,1′-biphenyl]-3-carboxamide]	2.02 µM				3.09 µM	5.59 µM		
Cc1cccc(NC(=O)/C=C/c2cc(C(N)=O)c(N)c(-c3ccc(S(N)(=O)=O)cc3)c2)c1 [HPN-01127, (E)-2-amino-5-(3-oxo-3-(m-tolylamino)prop-1-en-1-yl)-4═-sulfamoyl-[1,1′-biphenyl]-3-carboxamide]		0.33 µM	1.17 µM	3.37 µM				
COc1cccc(NC(=O)c2cc(-c3ccc(Br)cc3)cc(-c3ccc(S(N)(=O)=O)cc3)c2N)c1 [HPN-01620, 4′-amino-4-bromo-N-(3-methoxyphenyl)-4″-sulfamoyl-[1,1′:3′,1″-terphenyl]-5′-carboxamide]	5.36 µM				5.76 µM	9.22 µM		
NC(=O)c1cc(-c2ccc(Cl)cc2)cc(OCc2ccc(S(N)(=O)=O)cc2)c1N [HPN-01424, 4-amino-4′-chloro-5-((4-sulfamoylbenzyl)oxy)-[1,1′-biphenyl]-3-carboxamide]	1.45 µM				2.69 µM	4.31 µM		

More lines, in order of falling EC50 [1, 4], values ahead:

EC50 [1, 4]	Compound	EC50 ([1]; Huh7 cells)	EC50 [2]	EC50 [3]	EC50 ([2]; Homo sapiens, Hepatocyte)	EC50 ([3]; Homo sapiens, Hepatocyte)	EC50 ([2]; Hepatocyte)	EC50 ([3]; Hepatocyte)
1.18 µM	NC(=O)c1cc(Sc2ccc(Cl)cc2)cc(-c2ccc(S(N)(=O)=O)cc2)c1N [HPN-01314, 2-amino-5-((4-chlorophenyl)thio)-4′-sulfamoyl-[1,1′-biphenyl]-3-carboxamide]				4.57 µM	7.71 µM		
1.16 µM	Nc1c(C(=O)Nc2cc[nH]c2)cc(-c2ccc(Cl)cc2)cc1-c1ccc(S(N)(=O)=O)cc1 [HPN-01628, 4′-amino-4-chloro-N-(1H-pyrrol-3-yl)-4″-sulfamoyl-[1,1′:3′,1″-terphenyl]-5′-carboxamide]				2.39 µM	5.48 µM		
1.15 µM	NCCC(=O)Oc1c(C(N)=O)cc(-c2ccc(Br)cc2)cc1-c1ccc(NC(N)=O)cc1 [HPN-01526, 4-bromo-5′-carbamoyl-4″-ureido-[1,1′:3′,1″-terphenyl]-4′-yl 3-aminopropanoate]				1.63 µM	3.83 µM		
0.94 µM	CCCNS(=O)(=O)c1cccc(Oc2cc(-c3ccc(Cl)cc3)cc(C(N)=O)c2N)c1 [HPN-01411, 4-amino-4′-chloro-5-(3-(N-propylsulfamoyl)phenoxy)-[1,1′-biphenyl]-3-carboxamide]				1.59 µM	2.84 µM		
0.83 µM	NC(=O)c1cc(C2CCC(Br)CC2)cc(-c2ccc(S(N)(=O)=O)cc2)c1N (stereo not drawn) [HPN-01322, 2-amino-5-(4-bromocyclohexyl)-4′-sulfamoyl-[1,1′-biphenyl]-3-carboxamide]				1.62 µM	2.55 µM		
0.82 µM	Nc1c(C(=O)Nc2cccc(F)c2)cc(-c2ccc(Br)cc2)cc1-c1ccc(S(N)(=O)=O)cc1 [HPN-01614, 4′-amino-4-bromo-N-(3-fluorophenyl)-4″-sulfamoyl-[1,1′:3′,1″-terphenyl]-5′-carboxamide]				5.65 µM	8.6 µM		
0.69 µM	Nc1c(C(=O)NC2CC2)cc(-c2ccc(Cl)cc2)cc1-c1ccc(S(N)(=O)=O)cc1 [HPN-01605, 4′-amino-4-chloro-N-cyclopropyl-4″-sulfamoyl-[1,1′:3′,1″-terphenyl]-5′-carboxamide]				1.78 µM	2.35 µM		
0.64 µM	NC(=O)c1cc(-c2ccc(Br)cc2)cc(Nc2ccc(S(N)(=O)=O)cc2)c1N [HPN-01404, 4-amino-4′-bromo-5-((4-sulfamoylphenyl)amino)-[1,1′-biphenyl]-3-carboxamide]				1.97 µM	3.39 µM		
0.48 µM	NCCC(=O)Nc1c(C(N)=O)cc(-c2ccc(Cl)cc2)cc1-c1ccc(S(N)(=O)=O)cc1 [HPN-01517, 4′-(3-aminopropanamido)-4-chloro-4″-sulfamoyl-[1, 1′:3′,1″-terphenyl]-5′-carboxamide]		1.96 µM	2.94 µM				
0.38 µM	NC(=O)c1cc(/C=C/C(=O)NCc2ccccc2)cc(-c2ccc(S(N)(=O)=O)cc2)c1N [HPN-01131, (E)-2-amino-5-(3-(benzylamino)-3-oxoprop-1-en-1-yl)-4′-sulfamoyl-[1,1′-biphenyl]-3-carboxamide]				1.28 µM	2.26 µM		
0.29 µM	CCOc1ccc(NC(=O)/C=C/c2cc(C(N)=O)c(N)c(-c3ccc(S(N)(=O)=O)cc3)c2)cc1 [HPN-01129, (E)-2-amino-5-(3-((4-ethoxyphenyl)amino)-3-oxoprop-1-en-1-yl)-4′-sulfamoyl-[1,1′-biphenyl]-3-carboxamide]				1.69 µM	3.1 µM		
0.18 µM	COc1ccccc1C(=O)OCC#Cc1cc(C(N)=O)c(N)c(-c2ccc(S(N)(=O)=O)cc2)c1 [HPN-01217, 3-(6-amino-5-carbamoyl-4′-sulfamoyl-[1,1′-biphenyl]-3-yl)prop-2-yn-1-yl 2-methoxybenzoate]				1.03 µM	2.07 µM		
